Patent US9757378B2, “Methods to modulate acute myeloid leukemia stem/progenitor cell expansion and/or differentiation” (UNIVERSITE DE MONTREAL, priority 2013, dated 2017)

System: primary human AML cells
Test: Primary screen: differentiation of primary human AML cells in vitro (CD34/CD15, HTS flow cytometry)
Conditions: for percent gated cells (viability): 2 μM (commercial libraries) or 1 μg/ml (IRIC); for % increase CD34+ (%) / % increase CD34+ (cell counts) / % increase CD34+CD15− (cell counts): compared to DMSO; for % increase CD34+CD15− (%): compared to DMSO ((compound − DMSO)/DMSO*100); for CD34+CD15− cell counts compared to DMSO: in words
Description: AML cells were thawed in 37° C. water bath and 1:10 diluted in prewarmed Iscove's modified Dulbecco's medium (IMDM) containing 20% FBS and DNase 100 μg/ml. […] When compounds were added to the culture medium, final DMSO concentrations were 0.1% in all in vitro experiments and 0.01% when cultured cells were transplanted into NSG-mice.
Compounds were tested at 2 μM (commercial libraries) or 1 μg/ml (Medicinal Chemistry Facility, IRIC). […] For validation experiments AML cells were grown in 384-well plates with 3-8 replicates per condition.
Flow cytometry was performed on an LSR™ II cytometer equipped with an HTS-device (BD Bioscience, Primary and Secondary screens and in vitro validation experiments) or on a BD Canto™ II cytometer (BD Bioscience, Xenotransplantation and CellTrace Violet™ experiments). Cells were stained for 30 minutes at 4° C. protected from light if not otherwise indicated (CellTrace Violet™ staining). […] CD34 intensities in flow cytometry plots were set at high levels on day 0 to allow tracing of non-predictable decreases of intensities during 7 days in culture.

Row | Compound | percent gated cells (viability) | % increase CD34+ (%) | % increase CD34+ (cell counts) | % increase CD34+CD15− (cell counts) | % increase CD34+CD15− (%) | CD34+CD15− cell counts compared to DMSO
1 | Oc1ccc(C=Cc2cc(O)cc(O)c2)cc1 [UM0118532, Resveratrol] | 78.00% | 22.62% | −14.19% | 12.57% | 60.46% | 
2 | OC[C@@H]1CCCN2CCCC[C@H]12 [UM0119416, Lupinine] |  | 10.12% | 30.63% | 51.77% | 28.13% | 
3 | Nc1ccccc1C(=O)CC(N)C(=O)O (stereo not shown) [Kynurenine] |  |  |  |  |  | further reduced
4 | O=c1c2ccccc2oc2ccc(O)cc12 [UM0121186, 2-Hydroxyxanthone] | 82.40% | 48.93% | 48.11% | 65.21% | 66.25% | 
5 | Verteporfin [UM0119121] |  | 15.38% | 33.14% | 58.17% | 37.29% | 
6 | CC(=O)Oc1ccc(-c2cc(=O)c3c(OC(C)=O)cc(OC(C)=O)cc3o2)cc1 [UM0121171, Apigenin triacetate] | 80.10% | 48.36% | 17.48% | 31.61% | 66.25% | 
7 | COc1ccc(-c2cc(=O)c3ccc(O)cc3o2)cc1 [UM0117304, Pratol] | 82.40% | 50.40% | 31.59% | 47.36% | 68.85% | 
8 | O.O.O=c1c(O)c(-c2ccc(O)c(O)c2)oc2cc(O)cc(O)c12 [UM0118473, Quercetine dihydrate] |  | 15.71% | 6.69% | 69.64% | 83.29% | 
9 | CCOC(=O)c1oc2c(OC)c(O)cc(O)c2c(=O)c1-c1cc(OC)c(OC)c(OC)c1 [UM0121233, 2-Ethoxycarbonyl-5,7-dihydroxy-8,3′,4′,5′-tetramethoxyisoflavone] | 86.30% | 15.01% | 18.21% | 50.24% | 45.77% | 
10 | COc1ccc(-c2cc(=O)c3c(OC(C)=O)cc(OC(C)=O)cc3o2)cc1 [UM0120987, Acacetin diacetate] | 81.60% | 27.58% | 22.16% | 53.47% | 59.88% | 
11 | COc1ccc(C2CC(=O)c3ccc(OC)cc3O2)cc1 (stereo not shown) [UM0120851, Liquiritigenin dimethylether] | 81.20% | 34.97% | 31.66% | 59.21% | 63.25% | 
12 | COc1cc(-c2oc3cc(O)ccc3c(=O)c2O)ccc1O [UM0119468, Geraldol] | 78.50% | 25.29% | −41.47% | −23.14% | 64.06% | 
13 | CO[C@@H]1[C@H](OC(=O)/C=C/C=C/C=C/C=C/C(=O)O)CC[C@]2(CO2)[C@H]1[C@@]1(C)O[C@@H]1CC=C(C)C [UM0121512, Fumagillin] | 78.60% | 31.22% | −54.59% | −46.09% | 55.51% | 
14 | COc1cc2c(cc1O)C[C@H]1c3c(cc(O)c(OC)c3-2)CCN1C [UM0118103, Boldine] | 87.00% | −3.69% | 10.21% | 50.97% | 31.10% | 
15 | N[C@@H]1C[C@H]1c1ccccc1.N[C@H]1C[C@@H]1c1ccccc1.O=S(=O)(O)O [UM0121497, Tranylcypromine sulfate] | 76.50% | 20.22% | −15.83% | 19.65% | 70.66% | 
16 | C[C@]12CCC(=O)C=C1CC[C@@H]1[C@@H]2CC[C@]2(C)C(=O)CC[C@@H]12 [UM0119559, 4-Androstene-3,17-dione] | 82.30% | 1.57% | −20.76% | 20.14% | 53.81% | 
17 | N[C@@H](Cc1c[nH]c2ccccc12)C(=O)O [Tryptophan] |  |  |  |  |  | further reduced
18 | COc1ccc(-c2cc(=O)c3ccccc3o2)cc1 [UM0070201, 4′-Methoxyflavone] | 78.10% | 28.71% | 20.27% | 58.22% | 69.03% | 

Row | Compound | percent gated cells (viability) | % increase CD34+ (%) | % increase CD34+ (cell counts) | % increase CD34+CD15− (cell counts) | % increase CD34+CD15− (%) | CD34+CD15− cell counts compared to DMSO
19 | CC(C)=CCc1c(O)cc2oc(C)cc(=O)c2c1O [UM0121217, Peucenin] | 83.20% | 23.46% | 37.27% | 94.61% | 74.92% | 
20 | 2′-beta-Dihydrochalcone [UM0120960] |  | 24.69% | 8.21% | 41.99% | 63.62% | 
21 | O=c1cc(-c2ccc(O)c(O)c2)oc2cc(O)cc(O)c12 [UM0118175, Luteolin] | 79.80% | 40.48% | 4.97% | 27.50% | 70.76% | 
22 | Oc1cc(O)cc(/C=C/c2ccccc2)c1 [UM0120964, Pinosylvin] | 69.90% | 24.20% | 8.62% | 39.69% | 59.46% | 
23 | NC(=Nc1ccccc1)NC(=O)c1nc(Cl)c(N)nc1N [UM0120143, Phenamil methanesulfonate] | 84.10% | 30.88% | 28.04% | 54.83% | 58.21% | 
24 | CC[C@H](C)C(=O)O[C@H]1C[C@@H](C)C=C2C=C[C@H](C)[C@H](CC[C@@H]3C[C@@H](O)CC(=O)O3)[C@H]21 [UM0118699, Lovastatin] | 81.00% | 1.88% | −14.30% | 36.94% | 62.41% | 
25 | COc1ccc2c(c1)[nH]c1c(C)nccc12.Cl [UM0118303, Harmine hydrochloride] | 78.60% | 8.79% | −17.08% | 38.52% | 81.33% | 
26 | O=c1c(O)c(-c2ccccc2)oc2cc(O)cc(O)c12 [UM0119448, Galangine] |  |  | −0.57% | 23.06% | 60.64% | 
27 | CC(C)Oc1ccc2c(=O)c(-c3ccccc3)coc2c1 [UM0120559, Ipriflavone] |  | 27.34% | 39.89% | 54.50% | 40.47% | 
28 | CC(C)=CCOc1cc2oc(=O)ccc2cc1O [UM0120947, Prenyletin] | 81.10% | 18.10% | 15.58% | 56.71% | 60.33% | 
29 | COC(=O)/C(C)=C\CC12OC(C)(C)C3CC(C=C4C(=O)c5c(OC)c6c(c(CC=C(C)C)c5OC431)OC(C)(CCC=C(C)C)C=C6)C2=O (stereo not shown) [UM0120889, Dimethyl gambogate] |  | 47.72% | −50.44% | −48.79% | 52.62% | 
30 | O=c1cc(-c2ccc(O)cc2)oc2cc(O)cc(O)c12 [UM0118614, Apigenin] |  | 20.12% | 22.02% | 66.30% | 63.93% | 
31 | COc1cc(OC)c2c(=O)c(-c3ccc4c(c3)OCO4)coc2c1 [UM0121218, Derrustone] | 83.90% | 21.91% | 25.53% | 58.63% | 53.68% | 
32 | COc1c(-c2ccccc2)oc2c(OC)cccc2c1=O [UM0121168, 3,8-Dimethoxyflavone] | 80.80% | 29.05% | 24.97% | 53.85% | 58.96% | 
33 | CC(=O)c1ccc2c(c1)N(CCCN(C)C)c1ccccc1S2.O=C(O)/C=C\C(=O)O [UM0118758, Acetopromazine maleate salt] |  | −0.82% | −11.68% | 41.15% | 57.85% | 
34 | COc1cc(OC)c2c(=O)cc(-c3ccccc3)oc2c1 [UM0121173, 5,7-Dimethoxyflavone] | 82.00% | 29.43% | 34.90% | 53.11% | 46.97% | 
35 | Cc1cc(=O)oc2cc(O)c(O)cc12 [UM0120835, 4-Methylesculetin] | 84.90% | 22.85% | 18.23% | 104.34% | 111.64% | 
